Like-named read-outs stand apart in the source and are kept apart here.
Assays:
REH = test: Cell viability assay (DAPI, flow cytometry), REH; type: cell-based; settings: for IC50: Homo sapiens, REH, 48 h, mean ± SEM, N/A: not active; for SI: selectivity index, REH: ratio of IC50 in the MNC line over IC50 in the leukemia cell line
Protocol: (§1) Cell lines were cultured in RPMI 1640 medium (Roswell Park Memorial Institute medium) supplemented with 10% fetal bovine serum (FBS) and 1% penicillin–streptomycin. Cultures were maintained at 37 °C in a humidified incubator with 5% CO2. All biological evaluations were performed using cell between passages 3 and 4. All compounds were dissolved in dimethyl sulfoxide (DMSO) at a concentration of 20 mg/mL. In all assays, culture medium containing 0.1% DMSO was used as the negative control, while dasatinib was included as the positive control. Normal mononuclear cells (MNCs) were included as the normal cell control. All experiments were performed in triplicate. Leukemic cell lines and normal mononuclear cells (MNCs) were used to evaluate the cytotoxicity of the compounds. Leukemic cells (1 × 10^5 cells/well) were cultured in 96-well plates and treated with increasing concentrations of compounds (0.02, 0.2, 2.0, and 20 µM) for 48 h. After incubation, both leukemic cells and MNCs were collected, washed with phosphate-buffered saline (PBS), and stained with DAPI (500 ng/mL) for 15 min in darkness, following the manufacturer’s instructions. Fluorescence was analyzed using a FACSVerse flow cytometer (BD Bioscience, San Jose, CA, USA). Flow cytometry data were analyzed using FlowJo^TM software (version 10.9). […] All experiments were performed in triplicate, and results were expressed as means ± standard errors of the means (SEMs). Statical analysis was performed using one-way analysis of variance (ANOVA), followed by Dunnett’s post hoc test to compare treated groups against the control.

MOLT-4 = test: Cell viability assay (DAPI, flow cytometry), MOLT-4; type: cell-based; settings: for IC50: Homo sapiens, MOLT-4, 48 h, mean ± SEM, N/A: not active
Protocol: as §1

CCRF-CEM = test: Cell viability assay (DAPI, flow cytometry), CCRF-CEM; type: cell-based; settings: for IC50: Homo sapiens, CCRF-CEM, 48 h, mean ± SEM, N/A: not active; for SI: selectivity index, CCRF-CEM: ratio of IC50 in the MNC line over IC50 in the leukemia cell line
Protocol: as §1

[1] = tested on: leukemia cell lines (CCRF-CEM, REH, JURKAT, MOLT-4, THP-1); test: Cell viability assay, all leukemia cell lines tested (summary statements); type: cell-based; settings: for IC50 / IC50 across all leukemia cell lines tested: 48 h, summary over CCRF-CEM, REH, JURKAT, MOLT-4, THP-1; for IC50: read-out: IC50 across all leukemia cell lines tested
Protocol: as §1

JURKAT = test: Cell viability assay (DAPI, flow cytometry), JURKAT; type: cell-based; settings: for IC50: Homo sapiens, Jurkat, 48 h, mean ± SEM, N/A: not active; for SI: selectivity index, JURKAT: ratio of IC50 in the MNC line over IC50 in the leukemia cell line
Protocol: as §1

[2] = Cell viability assay in normal mononuclear cells; type: cell-based, human; settings: human
Protocol: (§2) All compounds were dissolved in dimethyl sulfoxide (DMSO) at a concentration of 20 mg/mL. In all assays, culture medium containing 0.1% DMSO was used as the negative control, while dasatinib was included as the positive control. Normal mononuclear cells (MNCs) were included as the normal cell control. All experiments were performed in triplicate. Normal mononuclear cells (MNCs) were isolated from peripheral blood mononuclear cells obtained from healthy human donors. Cell collection was conducted in accordance with institutional guidelines, including written informed consent from each participant. All procedures were approved by Ethics and Scientific Committee of the Mexican Institute of Social Security (IMSS, ethical approval number: CNIC R-2021-785-025). The MNCs were purified using FicollPaque Plus (Pharmacia Biotech, Uppsala, Sweden) by centrifugation at 400× g for 30 min at room temperature, following the manufacturer’s protocol. The resulting cells were resuspended in RPMI-1640 medium supplemented with 10% fetal bovine serum (FBS) and counted using a hemocytometer after trypan blue staining, confirming a viability of 95% [56]. […] After incubation, both leukemic cells and MNCs were collected, washed with phosphate-buffered saline (PBS), and stained with DAPI (500 ng/mL) for 15 min in darkness, following the manufacturer’s instructions. Fluorescence was analyzed using a FACSVerse flow cytometer (BD Bioscience, San Jose, CA, USA). Flow cytometry data were analyzed using FlowJo^TM software (version 10.9). […] All experiments were performed in triplicate, and results were expressed as means ± standard errors of the means (SEMs). Statical analysis was performed using one-way analysis of variance (ANOVA), followed by Dunnett’s post hoc test to compare treated groups against the control.

THP-1 = test: Cell viability assay (DAPI, flow cytometry), THP-1; type: cell-based; settings: for IC50: Homo sapiens, THP-1, 48 h, mean ± SEM, N/A: not active; for SI: selectivity index, THP-1: ratio of IC50 in the MNC line over IC50 in the leukemia cell line
Protocol: as §1

[3] = tested on: peripheral blood mononuclear cells (MNCs); test: Cell viability assay in normal mononuclear cells; type: cell-based, human
Protocol: as §2

CCRF-CEM cell line = test: Apoptosis assay (annexin V-FITC/DAPI flow cytometry), CCRF-CEM; type: cell-based
Protocol: (§3) Since compound T1c was the only derivative that decreased the cell viability of leukemic cells (IC50 ≤ 20 µΜ), without affecting viability in normal MNC cells, its mode of action to exert cytotoxic effects was evaluated by flow cytometry techniques, determining the apoptotic effect at 48 h, using ½ IC50 and IC50 concentrations obtained in the viability assay in the different leukemia cell lines. Dasatinib at different concentrations was included as a positive control. Cell death was quantified by dual staining with annexin V-FITC and DAPI. Annexin V binds to externalized phosphatidylserine residues during early and late apoptosis, whereas DAPI penetrates membrane-compromised cells, distinguishing between late apoptotic and necrotic cells. The total percentage of apoptotic cells was calculated as the sum of early and late apoptotic populations. The results were normalized to 100% with respect to the negative control.
(§4) Apoptosis induction was evaluated by flow cytometry. Cells (1 × 10^5 cells/well) were cultured in 96-well plates and exposed to the compounds at two concentrations (½ and 1 × IC50). After 48 h of treatment, the cells were washed with phosphate-buffered saline (PBS) and stained with annexin V-FITC (BD Bioscience) for 15 min in the dark. Following a second PBS wash, the cells were stained with DAPI (500 ng/mL) for 15 min in darkness. The stained samples were subsequently analyzed on a FACSVerse cytometer (BD Bioscience, San Jose, CA, USA).

THP-1 cell line = test: Apoptosis assay (annexin V-FITC/DAPI flow cytometry), THP-1; type: cell-based
Protocol: as §3, §4

JURKAT cell line = test: Apoptosis assay (annexin V-FITC/DAPI flow cytometry), JURKAT; type: cell-based
Protocol: as §3, §4

MOLT-4 cell line = test: Apoptosis assay (annexin V-FITC/DAPI flow cytometry), MOLT-4; type: cell-based
Protocol: as §3, §4

K562 cells = tested on: K562 cells; parameters: method as in PMID 36080390; settings: cited from earlier work
HL-60 cells = tested on: HL-60 cells; parameters: method as in PMID 36080390; settings: cited from earlier work
[4] = THP-1, positive control (dasatinib), 48 h
[5] = positive control (dasatinib), 48 h
[6] = MOLT-4, positive control (dasatinib), 48 h

## C=C(C=O)C1CCC2(C(=O)O)CCC3(C)C(CCC4C5(C)CCC(OC)C(C)(CO)C5CCC43C)C12 (stereo not drawn) [Compound T1b, 3α-methoxy-24-hydroxy-30-oxolup-20(29)-en-28-oic acid]
REH
  IC50: 9.46 ± 3.2 µM
  SI: selectivity index, REH: 1.13
MOLT-4
  IC50: 4.05 ± 0.1 µM
MOLT-4; ratio of IC50 in the MNC line over IC50 in the leukemia cell line
  SI: selectivity index, MOLT-4: 2.66
CCRF-CEM
  IC50: 6.87 ± 0.6 µM
  SI: selectivity index, CCRF-CEM: 1.59
[1]
  IC50: 4.05 to 15 µM
JURKAT
  IC50: 15 ± 1.6 µM
  SI: selectivity index, JURKAT: 0.72
[2]
  IC50 at 48 h: 10.8 ± 1.3 µM
THP-1
  IC50: 11.04 ± 0.1 µM
  SI: selectivity index, THP-1: 0.97

## C=C(C)C1CCC2(C(=O)O)CCC3(C)C(CCC4C5(C)CCC(OC(C)=O)C(C)(CO)C5CCC43C)C12 (stereo not drawn) [Compound T1e, 3α-acetyl-24-hydroxylup-20(29)-en-28-oic acid]
[1]
  IC50 across all leukemia cell lines tested: no activity
[3]
  IC50 MNCs: no activity

## C=C(C)C1CCC2(C(=O)O)CCC3(C)C(CCC4C5(C)CCC(OC)C(C)(CO)C5CCC43C)C12 (stereo not drawn) [Compound T1a, 3α-methoxy-24-hydroxylup-20(29)-en-28-oic acid]
REH
  IC50: > 20 µM
[3]
  IC50 MNCs: no activity

## C=C(C=O)C1CCC2(C(=O)O)CCC3(C)C(CCC4C5(C)CCC(O)C(C)(CO)C5CCC43C)C12 (stereo not drawn) [Compound T1c, 3α,24-dihydroxy-30-oxolup-20(29)-en-28-oic acid]
CCRF-CEM cell line; IC50, 48 h
  apoptosis rate (early + late): 97.13 ± 0.36%
  early apoptotic cells: 16.92%
  late apoptotic cells: 80.21%
CCRF-CEM cell line; ½ IC50, 48 h
  apoptosis rate (early + late): 62.40 ± 1.57%
  early apoptotic cells: 16.98%
  late apoptotic cells: 45.42%
REH
  IC50: > 20 µM
  SI: selectivity index, REH: 53.55
MOLT-4
  IC50: 13.9 ± 0.7 µM
CCRF-CEM
  IC50: 17.8 ± 1 µM
  SI: selectivity index, CCRF-CEM: 75.02
THP-1 cell line; THP-1, IC50, 48 h
  apoptosis rate (early + late): 52.23 ± 1.69%
  early apoptotic cells: 22.84%
  late apoptotic cells: 29.39%
THP-1 cell line; THP-1, ½ IC50, 48 h
  apoptosis rate (early + late): 29.40 ± 2.66%
  early apoptotic cells: 14.50%
  late apoptotic cells: 14.90%
[1]
  IC50: 12.9 to 24.9 µM
[1]; summary statement
  SI (selectivity against leukemia cell lines vs MNCs): > 10
JURKAT
  IC50: 18.7 ± 1.4 µM
  SI: selectivity index, JURKAT: 71.46
JURKAT cell line; IC50, 48 h
  apoptosis rate (early + late): 96.37 ± 0.49%
  early apoptotic cells: 47.61%
  late apoptotic cells: 48.72%
JURKAT cell line; ½ IC50, 48 h
  apoptosis rate (early + late): 67.14 ± 2.18%
  early apoptotic cells: 30.60%
  late apoptotic cells: 36.55%
[2]
  IC50 at 48 h: > 200 µM
THP-1
  IC50: 12.9 ± 0.1 µM
  SI: selectivity index, THP-1: 103.46
MOLT-4 cell line; MOLT-4, IC50, 48 h
  apoptosis rate (early + late): 94.58 ± 0.45%
  early apoptotic cells: 30.12%
  late apoptotic cells: 64.46%
MOLT-4 cell line; MOLT-4, ½ IC50, 48 h
  apoptosis rate (early + late): 69.91 ± 2.17%
  early apoptotic cells: 41.15%
  late apoptotic cells: 28.76%

## C=C(C=O)[C@@H]1CC[C@]2(C(=O)O)CC[C@]3(C)C(CCC4[C@@]5(C)CC[C@@H](O)[C@@](C)(CO)C5CC[C@]43C)C12 (stereo partly drawn) [Compound T2, 3α,23-dihydroxy-30-oxolup-20(29)-en-28-oic acid]
REH
  IC50: > 20 µM
  SI: selectivity index, REH: 11.40
K562 cells; at 102 µM
  K562 cell viability: 88.6 ± 0.40%
K562 cells; at 204 µM
  K562 cell viability: 24.3 ± 1.95%
CCRF-CEM
  IC50: > 20 µM
  SI: selectivity index, CCRF-CEM: 19.48
HL-60 cells; at 102 µM
  HL-60 cell viability: 88.35 ± 3.85%
HL-60 cells; at 204 µM
  HL-60 cell viability: 85.15 ± 3.05%
JURKAT
  IC50: > 20 µM
  SI: selectivity index, JURKAT: 8.56
[2]
  IC50 at 48 h: > 200 µM

## C=C(C)C1CCC2(C(=O)O)CCC3(C)C(CCC4C5(C)CCC(O)C(C)(CO)C5CCC43C)C12 (stereo not drawn) [Compound T1, 3α,24-dihydroxylup-20(29)-en-28-oic acid]
[1]
  IC50 across all leukemia cell lines tested: no activity
[2]
  IC50 at 48 h: > 200 µM

## Cc1nc(Nc2ncc(C(=O)Nc3c(C)cccc3Cl)s2)cc(N2CCN(CCO)CC2)n1 [Dasatinib, dasatinib, reference compound]
REH
  IC50: 5.43 ± 0.3 µM
MOLT-4
  IC50: 2.63 ± 0.1 µM
CCRF-CEM
  IC50: 10.8 ± 1.2 µM
THP-1 cell line; [4]
  apoptosis rate (early + late): 32.14 ± 3.15%
  early apoptotic cells: 7.21%
  late apoptotic cells: 24.93%
JURKAT
  IC50: 5.26 ± 0.5 µM
JURKAT cell line; [5]
  apoptosis rate (early + late): 97.19 ± 0.11%
  early apoptotic cells: 0.59%
  late apoptotic cells: 96.60%
THP-1
  IC50: 4.66 ± 0.3 µM
MOLT-4 cell line; [6]
  early apoptotic cells: 1.40%
  late apoptotic cells: 94.74%
MOLT-4 cell line; MOLT-4, positive control (dasatinib), 48 h, normalized to negative control
  apoptosis rate (early + late): 96.13 ± 0.71%

## C=C(CO)C1CCC2(C(=O)O)CCC3(C)C(CCC4C5(C)CCC(O)C(C)(CO)C5CCC43C)C12 (stereo not drawn) [Compound T1d, 3α,24,30-trihydroxylup-20(29)-en-28-oic acid]
[1]
  IC50 across all leukemia cell lines tested: no activity
[3]
  IC50 MNCs: no activity

Reference: article PMC12348585, “Semi-Synthesis, Anti-Leukemia Activity, and Docking Study of Derivatives from 3α,24-Dihydroxylup-20(29)-en-28-Oic Acid” (Molecules, 2025)
